Patent US11617718B2, “Process for producing a nano-CBD microemulsion system” (priority 2019, dated 2023)
Like-named read-outs stand apart in the source and are kept apart here.

Key:
[1] = cited from earlier work
[2] = Water solubility / water-dispersing ability; format: physicochemical; conditions: FIG. 1, dispersed in water
Experimental: Producing a carrier: 70 ml of PEG was heated to 70° C. 70 ml of the carrier was added to the above-prepared dispersal phase, this dispersal phase continued to be heating to 100° C. and stirred at a speed of 600 rpm.

C=C(C)[C@@H]1CCC(C)=C[C@H]1c1c(O)cc(CCCCC)cc1O [CBD, Cannabidiol]
half-life ([1]; in vivo): about 9 hours
bioavailability ([1]; used nasally (inhalantly)): about 31%
bioavailability ([1]; used orally): 13-19%
water-dispersing ability [2]: insoluble in water
